For series [1], the system named is TC83-WT. It is filed as cell-based, Venezuelan equine encephalitis virus.
In series [2] the test system is VEEV C localization in infected Vero cells. It is filed as cell-based.
The subject of series [3] is IMPα/β1 binding to HIV-1 integrase. The following applies: cited from earlier work.
Series [4] relates to VEEV. The following applies: cited from earlier work.
Series [5] has as its system HIV-1. The following applies: cited from earlier work.
In series [6] the target is IMPα/β1:C (Mus musculus, UniProt P52293). The series is classed as binding.
Series [7] concerns C-GFP nuclear accumulation in HeLa cells. It is filed as cell-based.
For series [8], the system named is GFP-T-ag nuclear accumulation in HeLa cells. It is filed as cell-based.
Series [9] relates to C-GFP nuclear import in HeLa cells. The series is classed as cell-based.
Series [10] relates to VEEV-TC83luc. The series is classed as cell-based, Venezuelan equine encephalitis virus.
Series [11] has as its system Vero cells.

Results on 4 compounds are retold here after PMC5735092 (Scientific Reports, 2017).

Broadly, the IC50 is the concentration that inhibits the measured activity by half. The EC50 is the concentration that produces a half-maximal response. A high value points to lower potency in that assay. For orientation: CC50 means the concentration that lowers cell viability or growth by half. A high value points to better tolerance by the cells.

In the case of `CC#C[C@]1(O)CC[C@H]2[C@@H]3CCC4=CC(=O)CCC4=C3[C@@H](c3ccc(N(C)C)cc3)C[C@@]21C` [Mifepristone], the “titer of wild-type TC83” value in series [1] is “significantly reduced the titer”. Besides, in series [2], the “nuclear C staining in infected cells” value is “reduced nuclear C staining”. In addition, the “inhibition of IMPα/β1 binding to HIV-1 integrase” value in [3] is given as “inhibitors of IMPα/β1 binding to HIV-1 integrase”. Also, the “activity against VEEV” value in series [4] is reported as “active against VEEV”. Moreover, the anti-HIV-1 activity result in series [5] is reported as “anti-HIV-1 activity”.

In turn, `O=C(c1cc(C(=O)N2CCN(c3cccc(Cl)c3)CC2)cc(C(=O)N2CCN(c3cccc(Cl)c3)CC2)c1)N1CCN(c2cccc(Cl)c2)CC1` [AK-968/15362127] yielded a 50% inhibitory concentration (IC50) in [6] of 32 ± 4.6 µM.

On to Ivermectin, for which, in series [1], the “titer of wild-type TC83” value is listed as “reduced the titer to a lesser extent”. Besides, the “inhibition of IMPα/β1 binding to HIV-1 integrase” value in series [3] was “inhibitors of IMPα/β1 binding to HIV-1 integrase”. The “nuclear accumulation of C-GFP” value in [7] is listed as “reduced nuclear accumulation of both constructs”. In series [4], the “activity against VEEV” value is given as “active against VEEV”. In [5], the anti-HIV-1 activity entry was “anti-HIV-1 activity”. The “nuclear accumulation of GFP-T-ag” value in series [8] is “reduced nuclear accumulation of both constructs”.

As to `CC(=O)Nc1ccc(S(=O)(=O)Nc2ccc(C3(c4ccc(NS(=O)(=O)c5ccc(NC(C)=O)cc5)cc4)c4ccccc4-c4ccccc43)cc2)cc1` [AN-329/40863801], in series [9], the “initial rate of C nuclear import” value is “significantly reduced” and the “maximal recovery of nuclear fluorescence (Fn(rec) max), lower than in DMSO alone treated cells” value is given as approximately 30%. In addition, in [10], the EC50 is more than 50 µM. For the same compound, the CC50 in [11] is more than 100 µM. Also, in series [7], the “nuclear accumulation of C-GFP” value is given as “no significant effect”. The “nuclear accumulation of GFP-T-ag” value in series [8] was “no significant effect”.
